What was measured:
[1] = tested on: Human immunodeficiency virus 1; assay: Antiviral activity against HIV1 3B infected in human MT2 cells assessed as p24 antigen level after 4 days by ELISA; type: functional, organism-based; conditions: Human immunodeficiency virus 1, 3B, MT2, 96 h
[2] = Therapeutic index, ratio of CC50 for human MT4 cells to EC50 for HIV1 NL4-3; type: cell-based; conditions: read-out: TI
[3] = tested on: Human immunodeficiency virus 1; assay: Antiviral activity against HIV1 NL4-3 infected in human MT4 cells assessed as p24 antigen level after 4 days by ELISA; type: functional, organism-based; conditions: Human immunodeficiency virus 1, NL4-3, MT4, 96 h
MT2 = conditions: human
Description: Cytotoxicity against human MT2 cells by XTT assay

[4] = Therapeutic index, ratio of CC50 for human MT2 cells to EC50 for HIV1 3B; type: cell-based; conditions: read-out: TI
MT4 = assay: Cytotoxicity against human MT4 cells by XTT assay; type: cell-based
[5] = Metabolic stability in human liver microsomes assessed as drug remaining at 1 mg/mL after 60 mins by HPLC; type: ADME, Microsome; conditions: read-out: Stability
[6] = Metabolic stability in human liver microsomes assessed as drug remaining at 1 mg/mL after 5 mins by HPLC; type: ADME, Microsome; conditions: read-out: Stability
[7] = Metabolic stability in human liver microsomes assessed as drug remaining at 1 mg/mL after 120 mins by HPLC; type: ADME, Microsome; conditions: read-out: Stability
[8] = Metabolic stability in human liver microsomes assessed as drug remaining at 1 mg/mL after 30 mins by HPLC; type: ADME, Microsome; conditions: read-out: Stability
[9] = Metabolic stability in human liver microsomes assessed as drug remaining at 1 mg/mL after 15 mins by HPLC; type: ADME, Microsome; conditions: read-out: Stability
[10] = tested on: Human immunodeficiency virus 1; assay: Antiviral activity against HIV1 3B infected in human MT2 cells assessed as p24 antigen level at their respective CC50 concentration after 4 days by ELISA; type: functional, organism-based

Row | SMILES | EC50 [1] | CC50 (MT2) | selectivity ratio [4] | EC50 [10] | also measured
1 | C=C(COCCN1CCOCC1)[C@@H]1CC[C@]2(C(=O)NCCCCCCCC(=O)NC)CC[C@]3(C)[C@H](CC[C@@H]4[C@@]5(C)CC[C@H](O)C(C)(C)[C@@H]5CC[C@]43C)[C@@H]12 | 0.09 µM | 22.3 µM | 250 | – | selectivity ratio [2]: > 138; EC50 [3]: 0.09 µM; CC50 (MT4): > 10 µM
2 | C=C(C)[C@@H]1CC[C@]2(C(=O)N3CCC(CCCC(=O)N4CCOCC4)CC3)CC[C@]3(C)[C@H](CC[C@@H]4[C@@]5(C)CC[C@H](OC(=O)CC(C)(C)C(=O)O)C(C)(C)[C@@H]5CC[C@]43C)[C@@H]12 | 0.011 µM | 19.2 µM | 1750 | – | selectivity ratio [2]: 121; EC50 [3]: 0.07 µM; CC50 (MT4): 8.8 µM
3 | C=C(C)[C@@H]1CC[C@]2(C(=O)NCCCCCCCC(=O)O)CC[C@]3(C)[C@H](CC[C@@H]4[C@@]5(C)CC[C@H](O)C(C)(C)[C@@H]5CC[C@]43C)[C@@H]12 | 3.3 µM | 33.4 µM | 10.1 | – | remaining at 1 h, 1 mg/mL [5]: 40.1%; remaining at 5 min, 1 mg/mL [6]: 93.4%; remaining at 2 h, 1 mg/mL [7]: 7.9%; remaining at 0.5 h, 1 mg/mL [8]: 61.9%; remaining at 0.25 h, 1 mg/mL [9]: 70.7%
4 | C=C(COCCCC)[C@@H]1CC[C@]2(C(=O)N[C@@H](CC(C)C)C(=O)O)CC[C@]3(C)[C@H](CC[C@@H]4[C@@]5(C)CC[C@H](O)C(C)(C)[C@@H]5CC[C@]43C)[C@@H]12 | – | 24.9 µM | – | Not Active | –
5 | C=C(C)[C@@H]1CC[C@]2(C(=O)NCCCCCCCNC(C)=O)CC[C@]3(C)[C@H](CC[C@@H]4[C@@]5(C)CC[C@H](O)C(C)(C)[C@@H]5CC[C@]43C)[C@@H]12 | – | – | – | – | selectivity ratio [2]: > 150; EC50 [3]: 0.092 µM; CC50 (MT4): > 10 µM
6 | Cc1cn([C@H]2C[C@H](N=[N+]=[N-])[C@@H](CO)O2)c(=O)[nH]c1=O [ZIDOVUDINE] | – | 1870 µM | – | – | –
7 | C=C(C)[C@@H]1CC[C@]2(C(=O)NCCCCCCCC(=O)N[C@@H](CC(C)C)[C@H](O)CC(=O)O)CC[C@]3(C)[C@H](CC[C@@H]4[C@@]5(C)CC[C@H](O)C(C)(C)[C@@H]5CC[C@]43C)[C@@H]12 | – | – | – | – | EC50 [3]: 0.089 µM; CC50 (MT4): > 10 µM
8 | C=C(COCCc1ccc(F)cc1)[C@@H]1CC[C@]2(C(=O)N[C@@H](CC(C)C)C(=O)O)CC[C@]3(C)[C@H](CC[C@@H]4[C@@]5(C)CC[C@H](O)C(C)(C)[C@@H]5CC[C@]43C)[C@@H]12 | – | 24.4 µM | – | Not Active | –
9 | C=C(COCCc1ccc(OC)cc1)[C@@H]1CC[C@]2(C(=O)N[C@@H](CC(C)C)C(=O)O)CC[C@]3(C)[C@H](CC[C@@H]4[C@@]5(C)CC[C@H](O)C(C)(C)[C@@H]5CC[C@]43C)[C@@H]12 | – | 16.7 µM | – | Not Active | –
10 | C=C(C)[C@@H]1CC[C@]2(C(=O)N3CCC(CCCC(=O)NC)CC3)CC[C@]3(C)[C@H](CC[C@@H]4[C@@]5(C)CC[C@H](OC(=O)CC(C)(C)C(=O)O)C(C)(C)[C@@H]5CC[C@]43C)[C@@H]12 | 0.067 µM | 33.3 µM | 497 | – | EC50 [3]: 0.24 µM; CC50 (MT4): > 10 µM
11 | C=C(COCCC)[C@@H]1CC[C@]2(C(=O)N[C@@H](CC(C)C)C(=O)O)CC[C@]3(C)[C@H](CC[C@@H]4[C@@]5(C)CC[C@H](O)C(C)(C)[C@@H]5CC[C@]43C)[C@@H]12 | – | 25.3 µM | – | Not Active | –
12 | C=C(C)[C@@H]1CC[C@]2(C(=O)N3CCC(CCCC(=O)O)CC3)CC[C@]3(C)[C@H](CC[C@@H]4[C@@]5(C)CC[C@H](OC(=O)CCC(C)(C)C(=O)O)C(C)(C)[C@@H]5CC[C@]43C)[C@@H]12 | 0.23 µM | 33.2 µM | 145 | – | –
13 | C=C(COCCc1ccc(Cl)cc1)[C@@H]1CC[C@]2(C(=O)N[C@@H](CC(C)C)C(=O)O)CC[C@]3(C)[C@H](CC[C@@H]4[C@@]5(C)CC[C@H](O)C(C)(C)[C@@H]5CC[C@]43C)[C@@H]12 | 27.8 µM | 34.6 µM | 1.2 | – | –
14 | C=C(COCCN1CCOCC1)[C@@H]1CC[C@]2(C(=O)NCCCCCCCC(=O)O)CC[C@]3(C)[C@H](CC[C@@H]4[C@@]5(C)CC[C@H](O)C(C)(C)[C@@H]5CC[C@]43C)[C@@H]12 | 1.8 µM | 24.8 µM | 13.8 | – | –
15 | C=C(CON1CCOCC1)[C@@H]1CC[C@]2(C(=O)N[C@@H](CC(C)C)C(=O)O)CC[C@]3(C)[C@H](CC[C@@H]4[C@@]5(C)CC[C@H](O)C(C)(C)[C@@H]5CC[C@]43C)[C@@H]12 | – | 27.5 µM | – | Not Active | –
16 | C=C(COCC)[C@@H]1CC[C@]2(C(=O)N[C@@H](CC(C)C)C(=O)O)CC[C@]3(C)[C@H](CC[C@@H]4[C@@]5(C)CC[C@H](O)C(C)(C)[C@@H]5CC[C@]43C)[C@@H]12 | – | 40.7 µM | – | Not Active | –
17 | C=C(CBr)[C@@H]1CC[C@]2(C(=O)N[C@@H](CC(C)C)C(=O)O)CC[C@]3(C)[C@H](CC[C@@H]4[C@@]5(C)CC[C@H](O)C(C)(C)[C@@H]5CC[C@]43C)[C@@H]12 | – | 26.8 µM | – | Not Active | –
18 | C=C(C)[C@@H]1CC[C@]2(C(=O)N3CCC(CCCC(=O)NCCN4CCOCC4)CC3)CC[C@]3(C)[C@H](CC[C@@H]4[C@@]5(C)CC[C@H](OC(=O)CC(C)(C)C(=O)O)C(C)(C)[C@@H]5CC[C@]43C)[C@@H]12 | 0.007 µM | 17.3 µM | 2470 | – | selectivity ratio [2]: 284; EC50 [3]: 0.035 µM; CC50 (MT4): 8.5 µM
19 | C=C(CO)[C@@H]1CC[C@]2(C(=O)NCCCCCCCC(=O)O)CC[C@]3(C)[C@H](CC[C@@H]4[C@@]5(C)CC[C@H](O)C(C)(C)[C@@H]5CC[C@]43C)[C@@H]12 | 14.8 µM | 40.7 µM | 2.8 | – | –
20 | C=C(C)[C@@H]1CC[C@]2(C(=O)N[C@@H](CC(C)C)C(=O)O)CC[C@]3(C)[C@H](CC[C@@H]4[C@@]5(C)CC[C@H](NC(=O)CC(C)(C)C(=O)O)C(C)(C)[C@@H]5CC[C@]43C)[C@@H]12 | 13.2 µM | 35.9 µM | 2.7 | – | –
21 | C=C(C)[C@@H]1CC[C@]2(C(=O)N[C@@H](CC(C)C)C(=O)O)CC[C@]3(C)[C@H](CC[C@@H]4[C@@]5(C)CC[C@H](O)C(C)(C)[C@@H]5CC[C@]43C)[C@@H]12 | – | 29.8 µM | – | Not Active | –
22 | C=C(CBr)[C@@H]1CC[C@]2(C(=O)N[C@@H](CC(C)C)C(=O)O)CC[C@]3(C)[C@H](CC[C@@H]4[C@@]5(C)CC[C@H](OC(=O)CC(C)(C)C(=O)O)C(C)(C)[C@@H]5CC[C@]43C)[C@@H]12 | 0.011 µM | 33.2 µM | 3020 | – | –
23 | C=C(CBr)[C@@H]1CC[C@]2(C(=O)NCCCCCCCC(=O)O)CC[C@]3(C)[C@H](CC[C@@H]4[C@@]5(C)CC[C@H](O)C(C)(C)[C@@H]5CC[C@]43C)[C@@H]12 | 2.3 µM | 36.9 µM | 16.1 | – | –
24 | C=C(C)[C@@H]1CC[C@]2(C(=O)N3CCC(CCCC(=O)O)CC3)CC[C@]3(C)[C@H](CC[C@@H]4[C@@]5(C)CC[C@H](OC(=O)CC(C)(C)C(=O)O)C(C)(C)[C@@H]5CC[C@]43C)[C@@H]12 | 0.015 µM | 20.8 µM | 1390 | – | –
25 | C=C(COCCN1CCOCC1)[C@@H]1CC[C@]2(C(=O)N[C@@H](CC(C)C)C(=O)O)CC[C@]3(C)[C@H](CC[C@@H]4[C@@]5(C)CC[C@H](O)C(C)(C)[C@@H]5CC[C@]43C)[C@@H]12 | 26.6 µM | 35.8 µM | 1.4 | – | –
26 | C=C(C)[C@@H]1CC[C@]2(C(=O)N3CCC(CCCC(=O)NCCCN4CCOCC4)CC3)CC[C@]3(C)[C@H](CC[C@@H]4[C@@]5(C)CC[C@H](OC(=O)CC(C)(C)C(=O)O)C(C)(C)[C@@H]5CC[C@]43C)[C@@H]12 | 0.006 µM | 18.5 µM | 3090 | – | selectivity ratio [2]: 246; EC50 [3]: 0.031 µM; CC50 (MT4): 8.6 µM
27 | C=C(COCCc1ccccc1)[C@@H]1CC[C@]2(C(=O)N[C@@H](CC(C)C)C(=O)O)CC[C@]3(C)[C@H](CC[C@@H]4[C@@]5(C)CC[C@H](O)C(C)(C)[C@@H]5CC[C@]43C)[C@@H]12 | – | 21.7 µM | – | Not Active | –
28 | C=C(CO)[C@@H]1CC[C@]2(C(=O)N[C@@H](CC(C)C)C(=O)O)CC[C@]3(C)[C@H](CC[C@@H]4[C@@]5(C)CC[C@H](O)C(C)(C)[C@@H]5CC[C@]43C)[C@@H]12 | – | 30.7 µM | – | Not Active | –
29 | C=C(C)[C@@H]1CC[C@]2(C(=O)N3CCC(CCCC(=O)O)CC3)CC[C@]3(C)[C@H](CC[C@@H]4[C@@]5(C)CC[C@H](O)C(C)(C)[C@@H]5CC[C@]43C)[C@@H]12 | 21.7 µM | 41 µM | 1.9 | – | remaining at 1 h, 1 mg/mL [5]: 62.7%; remaining at 5 min, 1 mg/mL [6]: 102%; remaining at 2 h, 1 mg/mL [7]: 53.8%; remaining at 0.5 h, 1 mg/mL [8]: 81.4%; remaining at 0.25 h, 1 mg/mL [9]: 97.6%
30 | C=C(COCCc1ccc(Br)cc1)[C@@H]1CC[C@]2(C(=O)N[C@@H](CC(C)C)C(=O)O)CC[C@]3(C)[C@H](CC[C@@H]4[C@@]5(C)CC[C@H](O)C(C)(C)[C@@H]5CC[C@]43C)[C@@H]12 | – | 20.8 µM | – | Not Active | –

Source: ChEMBL document CHEMBL1138499, “Anti-AIDS agents. 78. Design, synthesis, metabolic stability assessment, and antiviral evaluation of novel betulinic acid derivatives as potent anti-human immunodeficiency virus (HIV) agents” (J Med Chem, 2009)
